Test results as given in article PMC2717426, “The effect of exogenous glucagon-like peptide-1 on the glycaemic response to small intestinal nutrient in the critically ill: a randomised double-blind placebo-controlled cross over study” (Critical Care, 2009).

Experiments:
[1] = Blood glucose response to small intestinal nutrient infusion during intravenous GLP-1 infusion (bedside glucometer); format: in vivo, critically ill patients
Protocol: Seven critically ill adult patients (four males, three females, age range 28 to 76 years), predicted to remain mechanically ventilated for more than 48 hours, were studied. Exclusion criteria included pregnancy, pre-existing diabetes, contraindication to enteral feeding or post-pyloric catheter insertion, and previous surgery on the oesophagus, stomach or duodenum.
(§1) Patients were studied on two consecutive days, in which they received intravenous GLP-1 or placebo in a randomised, double-blind fashion. Twelve hours prior to the study, a naso-duodenal feeding catheter was inserted and confirmed via abdominal x-ray. On each study day enteral feeding was ceased at least four hours prior to the commencement of the study. Exogenous insulin (Actrapid, Novo-Nordisk, Copenhagen, Denmark) infusion was ceased at least two hours before the commencement of the study drug. Patient weight was provided by a relative and/or estimated by a dietician. […] The study investigators were blinded to each infusion, which were concealed in a glass bottle covered by black plastic. […] At t = 30 minute Ensure® (Abbott, Melbourne, Australia), a mixed nutrient liquid (64% carbohydrate, 1 kcal/ml), was delivered continuously into the small intestine at a rate of 1.5 ml/min for four hours (i.e. t = 30 to 270 min).
(§2) Blood glucose was measured at the bedside using a portable glucometer (Medisense Optimum, Abbott, Melbourne, Australia). Blood was collected, separated by centrifugation and the resulting plasma was stored at -70° until assayed for hormone concentrations. Plasma insulin was measured by ELISA (Diagnostics Systems Laboratories, Webster, Texas, USA) with an inter-assay coefficient of variation (CV) of 6.2%.
(§3) Data are presented as mean ± standard error of the mean. Area under the curve (AUC) was calculated using the trapezoidal rule. […] The ratios of insulin/glucose were calculated, as described previously. Statistical analyses were performed using SPSS (Version 15.0, Chicago, Illinois, USA). Distribution and sensitivity analysis, using nonparametric analyses, allowed parametric testing of data. The difference between intervention and placebo was assessed using paired samples; Student's paired t-test and repeated measures analysis of variance. Data were evaluated for potential carry over effect. The null hypothesis was rejected at the 0.05 significance.

[2] = Plasma insulin (ELISA) and insulin/glucose ratio during GLP-1 infusion; format: in vivo, critically ill patients; conditions: GLP-1 1.2 pmol/kg/min i.v., mean ± SEM, n = 7
Source text: Patients were studied on two consecutive days, in which they received intravenous GLP-1 or placebo in a randomised, double-blind fashion. Twelve hours prior to the study, a naso-duodenal feeding catheter was inserted and confirmed via abdominal x-ray. On each study day enteral feeding was ceased at least four hours prior to the commencement of the study. Exogenous insulin (Actrapid, Novo-Nordisk, Copenhagen, Denmark) infusion was ceased at least two hours before the commencement of the study drug. Patient weight was provided by a relative and/or estimated by a dietician. […] The study investigators were blinded to each infusion, which were concealed in a glass bottle covered by black plastic. […]
Blood glucose was measured at the bedside using a portable glucometer (Medisense Optimum, Abbott, Melbourne, Australia). […] Plasma insulin was measured by ELISA (Diagnostics Systems Laboratories, Webster, Texas, USA) with an inter-assay coefficient of variation (CV) of 6.2%.
Data are presented as mean ± standard error of the mean. Area under the curve (AUC) was calculated using the trapezoidal rule. […] The ratios of insulin/glucose were calculated, as described previously. […] The difference between intervention and placebo was assessed using paired samples; Student's paired t-test and repeated measures analysis of variance. Data were evaluated for potential carry over effect. […]

[3] = Total plasma GLP-1 concentration (radioimmunoassay) during GLP-1 infusion; format: in vivo, critically ill patients
Source text: as §1, §2, §3

[4] = Plasma glucagon concentration (radioimmunoassay) during GLP-1 infusion; format: in vivo, critically ill patients; conditions: GLP-1 1.2 pmol/kg/min i.v.; trapezoidal rule; mean ± SEM, n = 7
[5] = Tolerability of the study infusion; format: in vivo, critically ill patients; conditions: GLP-1 1.2 pmol/kg/min i.v. over 270 minutes; all 7 patients
Source text: as §1

[6] = GLP-1 infusion at 1.2 pmol/kg/min; postoperative patients with type 2 diabetes; cited from earlier work
Source text: Hyperglycaemia in critically ill patients, not previously known to have diabetes, is associated with poorer outcomes than in patients with pre-existing diabetes. […] Insulin infusions were ceased two hours before the commencement of the study to ensure clearance of exogenous insulin. Given t ...

[7] = GLP-1 1.2 pmol/kg/min i.v. t = 0-270 min, intra-duodenal Ensure 1.5 kcal/min t = 30-270 min, mean ± SEM, n = 7
[8] = GLP-1 1.2 pmol/kg/min i.v., total GLP-1, radioimmunoassay, mean ± SEM, n = 7

GLP-1-(7–36) amide
Effect on blood glucose prior to nutrient infusion, t = 30 min ([1]; GLP-1 1.2 pmol/kg/min i.v. from t = 0, before start of small intestinal nutrient, vs placebo): no effect
Blood glucose concentration, t = 180 min [1, 7]: 9.3 ± 0.6 mmol/L
Peak blood glucose [1, 7]: 10.1 ± 0.7 mmol/L
Overall glycaemic response, blood glucose AUC30–270 min ([1]; GLP-1 1.2 pmol/kg/min i.v., intra-duodenal Ensure 1.5 kcal/min t = 30-270 min, trapezoidal rule, mean ± SEM, n = 7): 2077 ± 144 mmol·min/L
Baseline blood glucose concentration, t = 0 min ([1]; GLP-1 study day, prior to infusion, arterial blood, glucometer, mean ± SEM, n = 7): 7.5 ± 0.4 mmol/L
Plasma insulin AUC0–270 min ([2]; entire study period, trapezoidal rule): 16,203 ± 5193 mU/l min
Plasma insulin, t = 270 min ([2]; intra-duodenal nutrient, ELISA): 79 ± 21 mU/l
Plasma GLP-1 AUC0–270 min ([3]; GLP-1 1.2 pmol/kg/min i.v. for 270 min, trapezoidal rule, mean ± SEM, n = 7): 31,659 ± 4203 pmol/l min
Time after which steady state plasma GLP-1 concentrations were achieved ([3]; GLP-1 1.2 pmol/kg/min i.v. infusion): 30 min
Plasma GLP-1 concentration, t = 30 min [3, 8]: 124 ± 15 pmol/L
Plasma GLP-1 concentration, t = 90 min [3, 8]: 131 ± 13 pmol/L
Plasma glucagon AUC0–270 minutes [4]: 22,786 ± 6040 pmol/l min
Tolerability of the study [5]: well tolerated
Effect on fasting glycaemia [6]: achieved fasting normoglycaemia
Tolerability [6]: well tolerated
